Data published in US20230310540A1, “PEPTIDE COMPOSITIONS AND METHODS OF USE THEREOF” (priority 2020, published 2023).
In brackets after ≈: the same amount, converted by molar mass. Square brackets hold non-standard residues; d marks the D form. Peptide text beside a SMILES is read from it. d(hArg) = N=C(N)NCCCC[C@@H](N)C(=O)O

Assays:
Type in all cases: cell-based
human RBCs = assay: Hemolysis of human RBCs
Description: (§1) Peptide variants of D-CONGA (SEQ ID NO: 1) were tested for activity against E. coli, K. pneumoniae, and S. aureus. Minimum Inhibitory Concentrations (MIC) were measured in 96-well plates by broth dilution. Peptides were serially diluted in buffer or in buffer containing 1×10^9 human RBC/ml. Following 1 hr. incubation, bacteria in growth media were added and the plates were incubated overnight at 37° C. Sterilized, wells were identified to determine MIC. Hemolysis was measured by incubating 1×10^8 human RBCs with serially diluted peptide for 30 minutes followed by centrifugation of the cells and measurements of the released hemoglobin in the supernatant by absorbance at 410 nm. The value for 100% hemolysis was established by treatment with the detergent Triton-X100. Toxicity was measured by incubating serially diluted peptide with WI38 human fibroblast cells in the presence of SYTOX Green, a DNA binding dye that reports on cell death by membrane permeabilization. The peptide concentration that gives 50% cytotoxicity by relative SYTOX Green fluorescence, is denoted EC50.
Peptide was serially diluted in PBS starting at a concentration of 100 μM. The final volume of peptide in each well was 50 μL. To each well, 50 μL of RBCs in PBS at 2×10^8 cells/mL was added. As a positive lysis control, 1% triton was used. The mixtures were incubated at 37° C. for 1 hour, after which they were centrifuged at 1000 g for 5 minutes. After centrifugation, 10 μL of supernatant was transferred to 90 μL of DI H2O in a fresh 96-well plate. The absorbance of released hemoglobin at 410 nm was recorded and the fractional hemolysis was calculated based on the 100% and 0% lysis controls.
(§2) MIC values were reported in μM peptide against gram-negative E. coli (EC), P. aeruginosa (PA), and gram-positive S. aureus (SA). The two columns under each organism are for assays performed in the absence (−) and presence (+) of 1×10^9 human RBC/ml. “>30” means that sterilization was not observed at 30 μM, the highest concentration tested. The column marked “hemolysis” is the fractional hemolysis of 1×10^8 human RBC/ml at 100 μM peptide determined from measurements of serially diluted peptide, starting from 100 μM. The column marked “EC 50” contains the concentration of peptide that kills 50% of WI-38 human fibroblast cells assayed by entry of SYTOX™ Green DNA binding dye.

S. aureus = conditions: for MIC in Broth Dilution, S. Aureus, RBC −: absence of RBC; for MIC in Broth Dilution, S. Aureus, RBC − / MIC in Broth Dilution, S. Aureus, RBC +: Table 3; for MIC, S. aureus, No RBC / MIC, S. aureus, 10^9 cells/ml RBC: Table 2; for MIC in Broth Dilution, S. Aureus, RBC +: presence of 1×10^9 human RBC/ml; for MIC, S. aureus, 10^9 cells/ml RBC: with 10^9 human RBC/ml
Description: as §1
(§3) Antimicrobial peptides and conventional antibiotics were prepared at 5-times the final concentration needed in 0.025% acetic acid. The antibiotics were serially diluted by a factor of 2:3 horizontally across 96-well plates from Corning, 25 μL per well. One column was reserved for controls. For the assays performed in the presence of RBC, type O+ human RBCs at 0 or 2.5×10^9 cells/mL were added in 50 μL aliquots to all wells. Following a 30-minute incubation, 50 μL of TSB, inoculated with 5×10^5 CFU/mL, was added to all wells, and plates were incubated overnight at 37° C. Following overnight incubation at 37° C., the OD600 was measured (values of less than 0.1 were considered sterilized). To assess bacterial growth in the assays with RBC, the OD600 was measured after a second day inoculation with 10 μL of solution from the original plate added to 100 μL of sterile TSB followed by overnight incubation.
as §2

E. coli = conditions: for MIC in Broth Dilution, E. coli, RBC −: absence of RBC; for MIC in Broth Dilution, E. coli, RBC − / MIC in Broth Dilution, E. coli, RBC +: Table 3; for MIC, E. coli, No RBC / MIC, E. coli, 10^9 cells/ml RBC: Table 2; for MIC in Broth Dilution, E. coli, RBC +: presence of 1×10^9 human RBC/ml; for MIC, E. coli, 10^9 cells/ml RBC: with 10^9 human RBC/ml
Description: as §1, §3, §2

Compound	Hemolysis at 100 μM (human RBCs)	MIC in Broth Dilution, S. Aureus, RBC − (S. aureus) [µM]	MIC, S. aureus, No RBC (S. aureus) [µM]	MIC in Broth Dilution, S. Aureus, RBC + (S. aureus) [µM]	MIC, S. aureus, 10^9 cells/ml RBC (S. aureus) [μM]	MIC in Broth Dilution, E. coli, RBC − (E. coli) [µM]	MIC, E. coli, No RBC (E. coli) [µM]	MIC in Broth Dilution, E. coli, RBC + (E. coli) [µM]	MIC, E. coli, 10^9 cells/ml RBC (E. coli) [μM]
CC(C)C[C@@H](NC(=O)[C@@H](CCCNC(=N)N)NC(=O)[C@H](N)CCCNC(=N)N)C(=O)N[C@H](C)C(=O)N[C@H](Cc1ccccc1)C(=O)N[C@H](C)C(=O)N[C@H](Cc1ccccc1)C(=O)N[C@H](Cc1c[nH]c2ccccc12)C(=O)N[C@H](C)C(=O)N[C@H](CCCNC(=N)N)C(=O)N[C@H](CCCNC(=N)N)C(=O)N[C@H](CCCNC(=N)N)C(=O)N[C@H](CCCNC(=N)N)C(N)=O [D-CONGA-FLIP, rrlafafwarrrr (All D)] (H-[dR][dR][dL][dA][dF][dA][dF][dW][dA][dR][dR][dR][dR]-NH2)	0.05	1.7 (≈ 2.99 µg/mL)	1.7 (≈ 2.99 µg/mL)	3.7	3.7	1 (≈ 1.76 µg/mL)	1 (≈ 1.76 µg/mL)	1.5	1.5
CC(C)C[C@@H](NC(=O)CNC(=O)[C@@H](CCCNC(=N)N)NC(=O)[C@@H](CCCNC(=N)N)NC(=O)[C@@H](C)NC(=O)[C@@H](Cc1c[nH]c2ccccc12)NC(=O)[C@@H](CCCNC(=N)N)NC(=O)[C@H](N)CCCNC(=N)N)C(=O)N[C@H](C)C(=O)N[C@H](Cc1ccccc1)C(=O)N[C@H](C)C(=O)N[C@H](Cc1ccccc1)C(=O)N[C@H](CCCNC(=N)N)C(=O)N[C@H](CCCNC(=N)N)C(N)=O [D-CONGA-G7, rrwarrglafafrr (All D)] (H-[dR][dR][dW][dA][dR][dR]G[dL][dA][dF][dA][dF][dR][dR]-NH2)	0.07	6.4 (≈ 11.6 µg/mL)	6.4 (≈ 11.6 µg/mL)	6.9	6.9	1.3 (≈ 2.36 µg/mL)	1.3 (≈ 2.36 µg/mL)	1.4	1.4
CC(C)C[C@@H](NC(=O)[C@@H](CCCCNC(=N)N)NC(=O)[C@@H](CCCCNC(=N)N)NC(=O)[C@@H](C)NC(=O)[C@@H](Cc1c[nH]c2ccccc12)NC(=O)[C@@H](CCCNC(=N)N)NC(=O)[C@H](N)CCCNC(=N)N)C(=O)N[C@H](C)C(=O)N[C@H](Cc1ccccc1)C(=O)N[C@H](C)C(=O)N[C@H](Cc1ccccc1)C(=O)N[C@H](CCCNC(=N)N)C(=O)N[C@H](CCCNC(=N)N)C(N)=O [D-CONGA-HomoR, rrwa (homo r, homo r)lafafrr] (H-[dR][dR][dW][dA][d(hArg)][d(hArg)][dL][dA][dF][dA][dF][dR][dR]-NH2)	0.06	1.7 (≈ 3.04 µg/mL)	1.7 (≈ 3.04 µg/mL)	2.5	2.5	1.3 (≈ 2.33 µg/mL)	1.3 (≈ 2.33 µg/mL)	2.2	2.2
CC(C)C[C@@H](NC(=O)[C@@H](CCCNC(=N)N)NC(=O)[C@H](CCCNC(=N)N)NC(=O)[C@@H](C)NC(=O)[C@@H](Cc1c[nH]c2ccccc12)NC(=O)[C@@H](CCCNC(=N)N)NC(=O)[C@H](N)CCCNC(=N)N)C(=O)N[C@H](C)C(=O)N[C@H](Cc1ccccc1)C(=O)N[C@@H](C)C(=O)N[C@H](Cc1ccccc1)C(=O)N[C@H](CCCNC(=N)N)C(=O)N[C@H](CCCNC(=N)N)C(N)=O [D-CONGA-L(R5, A10), rrwaRrlafAfrr] (H-[dR][dR][dW][dA]R[dR][dL][dA][dF]A[dF][dR][dR]-NH2)	0.04	>30	30 (≈ 52.8 µg/mL)	>30	30	1.4 (≈ 2.47 µg/mL)	1.4 (≈ 2.47 µg/mL)	1.4	1.4
